Experimental data reported in US5804576A, “Derivatives of 5-androsten-17-ones and 5-androstan-17-ones” (Research Corporation Technologies, Inc., priority 1986, dated 1998).
Entries after “also recorded” stand apart in the source; their conditions may differ.

Legend:
[1] = system: TPA (Tumor Promoter) Stimulation of Mouse Epidermal DNA; assay: Inhibition of TPA stimulation of mouse epidermal DNA synthesis (3H-thymidine incorporation), oral; assay type: in vivo, mouse (ICR male)
Outline: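 Shaved male ICR mice (7-9 weeks) got steroid orally in sesame oil (0.5 ml/mouse), then topical TPA (10 μg in acetone) 1 h later. After 20 h, i.p. 60 μCi ³H-thymidine 20 min before sacrifice; epidermal DNA labelling expressed as cpm per μg DNA (diphenylamine assay).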

[2] = system: DMBA-initiated and TPA-promoted skin papilloma formation in mice; settings: mouse, in vivo; cited from earlier work
[3] = system: DMBA produced papillomas and carcinomas; settings: topical; cited from earlier work
rat uterus = assay: Uterotrophic test for estrogenic activity, oral; assay type: in vivo; settings: for Mean Uterine Weight: 3 days, n = 6; for estrogenic activity (in words): rat uterotrophic test
Description: Uterotrophic Test for Estrogenic Activity. Compound 16 vs. DHEA and Estradiol-benzoate. Compounds Given by Oral Administration.
Twenty-two day old rats were obtained from Charles River Laboratories. Animals were used at 29 days of age. Test steroids were suspended by homogenization in sesame oil. Rats were orally intubated at 1-2 P.M. for 3 days with a test steroid in sesame oil or with sesame oil alone (control). On the 4th day the animals were killed and the uteri were removed and weighed.

VY-A^vy /a mice = settings: long-term administration; cited from earlier work
[4] = system: [3H]DMBA binding to skin DNA; assay: [3H]DMBA binding to skin DNA, oral steroid; assay type: in vivo, mouse (male A/J); settings: four weeks treatment with 400 mg/kg
[5] = system: mammalian glucose-6-phosphate dehydrogenase (G6PDH); settings: cited from earlier work
C57BL/KsJ-db/db mice = settings: 0.4% of the diet; cited from earlier work
cholesterol = settings: mouse, in vivo; cited from earlier work
[6] = system: TPA stimulation of 3H-thymidine incorporation in epidermis; assay: Inhibition of TPA stimulation of 3H-thymidine incorporation in epidermis, topical steroid; assay type: in vivo, mouse (A/J)
Description: Tumor promoters, such as TPA, stimulate hyperplasia and DNA synthesis when applied to the skin, and it is believed that this stimulation is an important step in the enhancement of tumorigenesis.
Incorporation of ^3 H-thymidine into A/J mouse epidermal DNA was determined as described in Pashko, L. L., Schwartz, A. G., Abou-Gharbia, M. and Swern, D. (1981), Inhibition of DNA synthesis in mouse epidermis and breast epithelium by dehydroepiandrosterone and related steroids, Carcinogenesis, 2, 717-721. Values are mean±SD for 3 separately treated mice in each group 20 hours after TPA application. DHEA or testosterone was added topically in 0.2 ml acetone one hour before TPA addition.

[7] = system: New Zealand Black (NZB) mice; settings: long-term treatment; cited from earlier work
[8] = system: spontaneous breast cancer in C3H mice; settings: long-term treatment; cited from earlier work

SMILES	activity relative to DHEA (TPA stimulation of epidermal DNA synthesis) ([1]; oral dose-response, as active as DHEA)	inhibition of DMBA-initiated and TPA-promoted skin papilloma formation (in words) [2]	inhibition of DMBA produced papillomas and carcinomas (in words) [3]	Mean Uterine Weight (rat uterus; 200 mg/kg oral) [Mgs]	Mean Uterine Weight (rat uterus; 400 mg/kg oral) [Mgs]	estrogenic activity (in words) (rat uterus)	estrogenic activity (in words) (rat uterus; listed as compound 16)	development of obesity (in words) (VY-A^vy /a mice)	3H-DMBA binding to skin DNA (in words) [4]	blocking the TPA stimulation in DNA synthesis rate (in words) ([1]; 200 mg/kg or 100 mg/kg oral)	blocking the TPA stimulation in DNA synthesis rate (in words) ([1]; 400 mg/kg oral)	TPA stimulation in 3H-thymidine incorporation (in words) ([1]; oral, single administration)	inhibition of mammalian G6PDH (in words) [5]	hypoglycemic effect (in words) (C57BL/KsJ-db/db mice)	lifespan (in words) (C57BL/KsJ-db/db mice)	anti-hypercholesterolemic effect (in words) (cholesterol)	TPA stimulation of epidermal DNA synthesis (in words) [6]	rate of development of the autoimmune anemia (in words) [7]	spontaneous breast cancer development (in words) [8]	weight gain (in words) [8]
C[C@H]1CC[C@@]2(C)C(=CC[C@@H]3[C@@H]2CC[C@]2(C)C(=O)CC[C@@H]32)C1 [Compound 16, 3β-methyl-5-androsten-17-one]	about 3 X	inhibit	inhibits DMBA produced papillomas and carcinomas	189 ± 14	174 ± 20	Neither compounds 16 nor 2 are estrogenic; also recorded: devoid of estrogenic activity in the rat uterotrophic test	without any apparent estrogenic effect													
C[C@]12CC[C@H](O)CC1=CC[C@@H]1[C@@H]2CC[C@]2(C)C(=O)CC[C@@H]12 [DHEA, 3β-Hydroxy-5-androst-en-17-one, reference compound]		inhibit	inhibits DMBA produced papillomas and carcinomas		261 ± 23	significantly estrogenic		prevented the development of obesity without suppressing appetite	does inhibit ^3 H-DMBA binding to skin DNA	not at 200 mg/kg or 100 mg/kg	active at blocking the TPA stimulation in DNA synthesis rate at 400 mg/kg	does not inhibit the TPA stimulation in epidermal ^3 H-thymidine incorporation to a degree comparable; also recorded: inactive	potent non-competitive inhibitor of mammalian glucose-6-phosphate dehydrogenase	marked hypoglycemic effect	significantly prolonged their lifespan	anti-hypercholesterolemic effect	abolishes this stimulation	significantly inhibits the rate of development of the autoimmune anemia	markedly inhibits spontaneous breast cancer development	reducing weight gain without suppressing appetite
